What was measured:
Adenosine receptor A2a = Adenosine receptor A2a (Homo sapiens, UniProt P29274); experiment: Displacement of [3H]SCH-58261 from human recombinant adenosine A2A receptor expressed in HEK293 cells; type: cell-based
Adenosine receptor A1 = target: T1, Adenosine receptor A1 (Homo sapiens, UniProt P30542); experiment: Displacement of [3H]DPCPX from human recombinant adenosine A1 receptor expressed in CHOK1 cells; type: cell-based, CHO-K1
T1 sequence (P30542 whole entry): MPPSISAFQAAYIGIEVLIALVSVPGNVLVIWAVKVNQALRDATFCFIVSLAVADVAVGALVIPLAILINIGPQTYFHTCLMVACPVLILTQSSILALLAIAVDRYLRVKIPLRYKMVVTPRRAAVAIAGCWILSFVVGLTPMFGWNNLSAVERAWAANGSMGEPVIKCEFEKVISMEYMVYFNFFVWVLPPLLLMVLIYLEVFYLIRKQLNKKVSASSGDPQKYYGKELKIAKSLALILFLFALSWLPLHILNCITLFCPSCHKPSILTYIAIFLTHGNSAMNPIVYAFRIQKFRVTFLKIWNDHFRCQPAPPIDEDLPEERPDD

Homo sapiens = species: Homo sapiens; experiment: Selectivity ratio of Ki for human recombinant adenosine A1 receptor to Ki for human recombinant adenosine A2A receptor

Sequence of Adenosine receptor A2a (P29274 whole entry): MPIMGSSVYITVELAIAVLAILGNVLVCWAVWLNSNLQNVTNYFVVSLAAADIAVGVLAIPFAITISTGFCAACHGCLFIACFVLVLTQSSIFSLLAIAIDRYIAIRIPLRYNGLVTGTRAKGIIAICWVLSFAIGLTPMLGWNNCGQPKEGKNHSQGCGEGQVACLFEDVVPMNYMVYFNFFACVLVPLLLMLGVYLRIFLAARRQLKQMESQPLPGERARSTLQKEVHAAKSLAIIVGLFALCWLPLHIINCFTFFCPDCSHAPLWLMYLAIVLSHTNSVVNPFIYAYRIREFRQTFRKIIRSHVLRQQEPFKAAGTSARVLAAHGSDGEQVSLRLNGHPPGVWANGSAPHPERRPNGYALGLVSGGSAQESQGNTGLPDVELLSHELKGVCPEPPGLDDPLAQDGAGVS

Ki (Adenosine receptor A2a) | Ki (Adenosine receptor A1) | Ratio Ki (Homo sapiens) | Compound
0.195 µM | 6.78 µM | 35 | COCCNc1nc(-c2ccco2)c(C(=O)c2ccccc2)s1
0.105 µM | 3.71 µM | 35 | O=C(c1ccccc1)c1sc(NC2CCN(C(=O)c3ccccc3F)CC2)nc1-c1ccco1
2.8 µM | 9.46 µM | 3.4 | CN(Cc1ccccc1)c1nc(-c2ccco2)c(C(=O)c2ccccc2)s1
0.105 µM | 6.3 µM | 60 | O=C(c1ccccc1)c1sc(NCCCc2ccccc2)nc1-c1ccco1
0.16 µM | 3.42 µM | 21 | CN(Cc1ccco1)c1nc(-c2ccco2)c(C(=O)c2ccccc2)s1
0.054 µM | 2.99 µM | 56 | O=C(c1ccccc1)c1sc(NCc2cccs2)nc1-c1ccco1
7.14 µM | > 10 µM | > 1.4 | O=C(c1ccccc1)c1sc(N(CCc2cccs2)Cc2ccccc2)nc1-c1ccco1
0.088 µM | > 10 µM | > 115 | O=C(c1ccccc1)c1sc(N(Cc2ccccc2)Cc2ccco2)nc1-c1ccco1
0.064 µM | > 7.5 µM | > 120 | O=C(c1ccccc1)c1sc(NCc2ccc(F)c(F)c2)nc1-c1ccco1
0.067 µM | 3.58 µM | 54 | CNc1nc(-c2ccco2)c(C(=O)c2ccccc2)s1
0.455 µM | 1.24 µM | 3 | CC(=O)N1CCC(Nc2nc(-c3ccco3)c(C(=O)c3ccccc3)s2)CC1
0.012 µM | > 6.7 µM | > 580 | O=C(c1ccccc1)c1sc(NCCc2cccs2)nc1-c1ccco1
0.089 µM | 1.28 µM | 14 | CC(C)CNc1nc(-c2ccco2)c(C(=O)c2ccccc2)s1
0.154 µM | 3.97 µM | 26 | COC(C)CNc1nc(-c2ccco2)c(C(=O)c2ccccc2)s1 (configuration not stated)
0.281 µM | 2.42 µM | 9 | CC(=O)NCCNc1nc(-c2ccco2)c(C(=O)c2ccccc2)s1
0.061 µM | 3.5 µM | 58 | O=C(c1ccccc1)c1sc(NCCc2ccc3c(c2)OCO3)nc1-c1ccco1
0.043 µM | 1.46 µM | 35 | O=C(c1ccccc1)c1sc(NCc2ccco2)nc1-c1ccco1
8.17 µM | > 10 µM | > 1.2 | CN(CCc1cccs1)c1nc(-c2ccco2)c(C(=O)c2ccccc2)s1
6.82 µM | > 10 µM | > 1.5 | CN(C)c1nc(-c2ccco2)c(C(=O)c2ccccc2)s1

Reference: ChEMBL document CHEMBL1154525, “Synthesis of 2-amino-5-benzoyl-4-(2-furyl)thiazoles as adenosine A(2A) receptor antagonists” (Bioorg Med Chem Lett, 2009)
